Assay results as given in patent US20130209487A1, “Treatment of Avian Species with Inhibitors of P110 Delta Signaling” (priority 2010, published 2013).
Entries after “also recorded” stand apart in the source; their conditions may differ.

Legend:
[1] = tested on: influenza virus strain PR8; type: cell-based
[2] = tested on: H7N7 A/Equine/London/1416/73 influenza virus strain; parameters: species or system mice; conditions: mouse, in vivo

Cc1ccccc1-n1c(Cn2cnc3c(N)ncnc32)nc2cccc(C)c2c1=O [IC87114]
influenza virus replication [1]: inhibits influenza virus replication
viral mRNA production reduced compared to untreated cells [1]: ~25 fold
survival after lethal challenge [2]: increased survival; also recorded: protects mice lethally challenged with virulent influenza virus
survival of A549 cell (A549 cell): did not affect the survival
